Data taken from patent US12065424B1, “6′(4-methoxyphenyl)-2′-alkoxy-3,4′-bipyridine-3′-carbonitrile as antimicrobial compounds” (KING FAISAL UNIVERSITY, priority 2023, dated 2024).

Tests used:
Type in all cases: cell-based
Aspergillus flavus = experiment: Agar plate disc-diffusion, antifungal inhibition zone; conditions: Sabouraud's dextrose agar, 37° C., 72 h, DMSO zone subtracted
Protocol: (§1) The agar plate disc-diffusion method was applied. Sterilized filter papers (6 mm in diameter) were wetted with 10 μL of a solution of 6′-(4-methoxyphenyl)-2′-ethoxy-3,4′-bipyridine-3′-carbonitrile (4) or 6′-(4-methoxyphenyl)-2′-methoxy-3,4′-bipyridine-3′-carbonitrile (5) to be tested, containing […] in DMSO, and the discs were allowed to air dry. The discs were then placed onto the surface of agar plates (nutrient agar for bacteria and Sabouraud's dextrose agar for fungi) seeded with the test organism. Each plate contained 15 mL of the agar medium, previously seeded with 0.2 mL of the broth culture of each organism pregrown for 18 hours. The plates were incubated at 37° C. for 48 h, and 72 h for fungi. The inhibition zones were measured in mm. Discs impregnated with DMSO were used as a control, and its inhibition zone was subtracted from the tested compound actual inhibition zone.
(§2) The results of the antimicrobial testing can be observed in Tables 1 and 2, below, using ciprofloxacin as a reference.

[1] = system: Chrysosporium keratinophilum; experiment: as above; conditions: Sabouraud's dextrose agar, 37° C., 72 h, DMSO zone subtracted
Protocol: as §1, §2

Staphylococcus aureus = experiment: Agar plate disc-diffusion, antibacterial inhibition zone; conditions: nutrient agar, 37° C., 48 h, DMSO zone subtracted
Protocol: as §1, §2

Pseudomonas aeruginosa = experiment: as above; conditions: nutrient agar, 37° C., 48 h, DMSO zone subtracted
Protocol: as §1, §2

Bacillus Cereus = experiment: as above; conditions: nutrient agar, 37° C., 48 h, DMSO zone subtracted
Protocol: as §1, §2

Escherichia coli = experiment: as above; conditions: nutrient agar, 37° C., 48 h, DMSO zone subtracted
Protocol: as §1, §2

different microbes = experiment: Antimicrobial activity, overall statement on Tables 1 and 2; conditions: summary of Tables 1 and 2, bacteria and fungi
Protocol: as §1
Their antibacterial activity was screened against gram positive bacteria namely Bacillus cereus and Staphylococcus aureus and gram-negative bacterial strains namely Pseudomonas aeruginosa and Escherichia coli, while their antifungal activity was screened against Aspergillus flavus and Chrysosporium keratinophilum.

[2] = A = concentration of comp. = 10,000 μL
[3] = B = concentration of comp. = 30.000 μL
[4] = C = concentration of comp. = 50,000 μL

| SMILES | inhibition zone (Aspergillus flavus; [2]) [mm] | inhibition zone (Aspergillus flavus; [3]) [mm] | inhibition zone (Aspergillus flavus; [4]) [mm] | inhibition zone [1, 2] [mm] | inhibition zone [1, 3] [mm] | inhibition zone [1, 4] [mm] | inhibition zone (Staphylococcus aureus; [2]) [mm] | inhibition zone (Staphylococcus aureus; [3]) [mm] | inhibition zone (Staphylococcus aureus; [4]) [mm] | inhibition zone (Pseudomonas aeruginosa; [2]) [mm] | inhibition zone (Pseudomonas aeruginosa; [3]) [mm] | inhibition zone (Pseudomonas aeruginosa; [4]) [mm] | inhibition zone (Bacillus Cereus; [2]) [mm] | inhibition zone (Bacillus Cereus; [3]) [mm] | inhibition zone (Bacillus Cereus; [4]) [mm] | inhibition zone (Escherichia coli; [2]) [mm] | inhibition zone (Escherichia coli; [3]) [mm] | inhibition zone (Escherichia coli; [4]) [mm] | antimicrobial activities (in words) (different microbes) |
| --- | --- | --- | --- | --- | --- | --- | --- | --- | --- | --- | --- | --- | --- | --- | --- | --- | --- | --- | --- |
| O=C(O)c1cn(C2CC2)c2cc(N3CCNCC3)c(F)cc2c1=O [Cip., ciprofloxacin, reference compound] | 29 | 30 | 42 | 29 | 30 | 53 | 43 | 44 | 53 | 29 | 30 | 53 | 29 | 30 | 42 | 30 | 39 | 60 |  |
| CCOc1nc(-c2ccc(OC)cc2)cc(-c2cccnc2)c1C#N [Compound 4, 6′-(4-methoxyphenyl)-2′-ethoxy-3,4′-bipyridine-3′-carbonitrile] | 23 | 27 | 38 | 25 | 28 | 46 | 17 | 21 | 31 | 25 | 28 | 41 | 19 | 25 | 32 | 26 | 36 | 49 | high antimicrobial activities |
| COc1ccc(-c2cc(-c3cccnc3)c(C#N)c(OC)n2)cc1 [Compound 5, 6′-(4-methoxyphenyl)-2′-methoxy-3,4′-bipyridine-3′-carbonitrile] | 24 | 26 | 39 | 27 | 28 | 49 | 19 | 27 | 32 | 23 | 31 | 39 | 23 | 25 | 37 | 27 | 37 | 50 | high antimicrobial activities |
